The subject of test [1] is Parkin. The test can be described thus: Parkin recruitment to mitochondria and mitochondrial morphology, fluorescence microscopy. The class given is cell-based, human. As to conditions: HEK293 T-REx PINK1 cells, 3 h; 5 μM compound 5, CCCP or Antimycin A, vs DMSO. Here is the method: (§1) Inducible stable Flp-In HEK293 T-REx cells expressing PINK1 were described previously.[33] HEK293 T-REx PINK1 and HEK293T cells were grown in DMEM (Gibco) supplemented with 10% (v/v) fetal bovine serum (ThermoFisher), 1% (v/v) GlutaMAX (Gibco), 1% (v/v) sodium pyruvate (Gibco), 125 μg/mL hygromycin (Invitrogen), and 10 μg/mL blasticidin (Gibco) or DMEM supplemented with 10% (v/v) fetal bovine serum, respectively, at 37 °C in 5% (v/v) CO2. For microscopy, cells were seeded on poly-L-lysine (Sigma)-coated slides. Transient plasmid transfections were performed using 25 kDa linear polyethylenimine (Polysciences). Plasmid (100 ng) encoding HA-Parkin-IRES-GFP, mito-mCherry or Parkin-mEGFP, or 500 ng plasmid encoding PGAM5-FLAG were used per 6-well. Total transfected DNA was 2 μg/well. For siRNA transfection, 2 × 10^5 cells were seeded per 6-well and on the next day transfected with 20 nM siRNA-oligonucleotide using lipofectamine RNAiMAX (ThermoFisher). Cells were analyzed 27 h post-transfection or five days post-siRNA-transfection. HEK293 T-REx PINK1 cells were induced with 0.3 μg/mL doxycycline for 24 h before further processing. Hoechst staining (1 μg/mL) was done immediately before adding treatment to the cells. Treatments were administered for the indicated times before processing; CCCP (Sigma) was always used as 10 μM for 3 h and Antimycin A (Sigma) as 30 μM for 3 h.
For fixation, cells were incubated for 15 min with 4% formaldehyde (16% formaldehyde diluted in PBS, Thermo Scientific) and washed in PBS. The cover glasses were mounted with Fluoromount-G (Southern Biotech) on microscope slides. […] Parkin recruitment events to the mitochondria were counted by hand throughout each z-stack and cell. […] JC-1 images were handled as summed intensity z-stack projections, as well as subjected to flatfield correction and subtraction of background before measuring the fluorescence levels normalized to the number of cell nuclei. The fluorescence intensity ratio between the red and green signal was calculated and compared to DMSO as a ratio of 1. Data were evaluated using Excel and GraphPad Prism 6.

In test [2] the test system is PINK1. The test can be described thus: PINK1 processing and stabilization, endogenous PINK1, sodium carbonate fractionation and immunoblot. The format is cell-based, human. As to conditions: HEK293T cells, 5 μM, 8 h. On the procedure: as §1, with “[…] For quantification, ImageJ” for “Hoechst staining (1 μg/mL)”, “used (http://rsb.info.nih.gov/ij/). Immunoblots shown are representative of at least three independent experiments and” for “done immediately before adding treatment to the cells. Treatments”, “evaluated using Excel” for “administered for the indicated times before processing; CCCP (Sigma) was always used as 10 μM for 3 h”, “GraphPad Prism 9 (GraphPad Software, Inc.).” for “Antimycin A (Sigma) as 30 μM for 3 h.”
In general terms: Immunoblotting shows a protein as a band on a membrane.

*1 amine or outer side, *2 acyl side, *3 side chain or, on linkers, in order; H or OH if unused. Where a SMILES comes first, the peptide text is derived from it. [ ]: non-standard residue; d: D form. The star is where a group is joined. NH(4-phenylbutyl) = c1ccc(CCCCN*)cc1; X1 = C[C@H](N[*:1])C(=O)C(=O)[*:2]

With `CC(=O)N[C@@H](C)C(=O)N[C@H](C(=O)N[C@@H](Cc1ccccc1)C(=O)N[C@@H](CC(C)C)C(=O)N[C@@H](C)C(=O)C(=O)NCCCCc1ccccc1)C(C)C` [compound 5] (Ac-AVFL[X1]-{NH(4-phenylbutyl)}), in test [1], the “Recruitment of Parkin-mEGFP to mitochondria (microscopy)” value was “significant recruitment of mEGFP-tagged Parkin to the mitochondria”. Moreover, the “Effect on endogenous PINK1 cleavage and stabilization” value in test [2] was “endogenous PINK1 remains largely uncleaved and is stabilized in its 66 kDa form”; in test [2] (listed as Compound 5) it was “inhibits PARL-catalyzed PINK1 cleavage under endogenous expression levels”.

Values taken from publication PMC9841525, “Chemical Blockage of the Mitochondrial Rhomboid Protease PARL by Novel Ketoamide Inhibitors Reveals Its Role in PINK1/Parkin-Dependent Mitophagy” (Journal of Medicinal Chemistry, 2022).
